Test results taken from publication PMC7529893, “Structural basis for substrate recognition and chemical inhibition of oncogenic MAGE ubiquitin ligases” (Nature Communications, 2020).

target: T1, MAGE-A11:PCF11 interaction (GST-MAGE-A11 and FAM-PCF11_4) (Homo sapiens, UniProt P43364); test: TR-FRET primary / single point screen at 15 µM; type: binding; settings: single point TR-FRET screening of 797 quinoline compounds against MAGE-A11:PCF11
T1 construct: GST-MAGE-A11 MHD (human MAGE-A11 MHD amino acid 218-429); made in house; host or cells: E. coli BL21(DE3)
T1 sequence (P43364 218-429): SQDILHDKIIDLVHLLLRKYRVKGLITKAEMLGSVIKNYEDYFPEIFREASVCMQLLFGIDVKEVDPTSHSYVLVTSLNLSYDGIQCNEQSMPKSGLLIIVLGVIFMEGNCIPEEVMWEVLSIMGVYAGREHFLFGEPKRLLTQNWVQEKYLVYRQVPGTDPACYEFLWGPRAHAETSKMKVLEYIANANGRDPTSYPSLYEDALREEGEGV
Procedure: The TR-FRET assay buffer with a formula of 50 mM Tris pH 7.5, 20 mM MgCl2, 0.1 mg/ml BSA and 1 mM DTT was freshly prepared before each experiment. All TR-FRET assays were performed in black 384-well plates with 20 µl/well assay volume in the TR-FRET assay buffer at room temperature (~25 °C). All peptides or compounds were solubilized in DMSO. To test the competitive activity of peptides or compounds against the interaction between GST-MAGE-A11 MHD and FAM-PCF11_4 peptide, 10 µl/well peptide or compound at specified concentration was dispensed into a black 384-well low volume plate, followed by 5 µl/well FAM-PCF11_4 (800 nM), 5 µl/well Tb-anti-GST (20 nM), and GST-MAGE-A11 MHD (20 nM). The assay components in each well was then mixed by shaking the plate on an IKA MTS 2/4 digital microtiter plate shaker (IKA Works; Wilmington, NC, USA) for 1 min. The plate was further centrifuged in an Eppendorf 5810 centrifuge with an A-4-62 swing-bucket rotor (Eppendorf AG, Hamburg, Germany) at 201 g for 30 s. The plate was then incubated for 90 min with a lid to avoid light exposure to the assay components. After incubation, the fluorescent emission signals at 520 nm and 490 nm channels of individual wells were measured with a PHERAstar FS plate reader (BMG Labtech; Durham, NC, USA) by using a 340 nm excitation filter, 100 µs delay time, and 200 µs integration time. The TR-FRET fluorescence emission ratio (TR-FRET signal) for each well was presented as 10,000 × 520 nm/490 nm, which was used directly for curve fitting, or further converted to %Inhibition based on the respective positive and negative controls. The graphic software GraphPad Prism 4.81 (GraphPad Software; La Jolla, CA, USA) was used to generate curves and derive IC50 values of tested peptides or compounds, if applicable. TR-FRET screen for identifying MAGE-A11 small molecule inhibitors was performed as follows. The primary one-concentration screening and subsequent 10 or 20-concentration dose-response tests were accomplished with an automated High Throughput Screening system (HighRes Biosolutions, Beverly, MA)[30]. In the primary screening, 15 µl/well FAM-PCF11_4 (267 nM) was first dispensed with a Multidrop Combi Reagent Dispenser (Thermo Fisher Scientific, Waltham, MA) to black 384-well low-volume assay plates. The plates were spun down with a Velocity11 VSpin microplate centrifuge (Agilent Technologies, Santa Clara, CA). In total, 30 nl/well of 10 mM compound/DMSO solutions, or DMSO alone, were transferred from compound plates (the St. Jude FDA drug and bioactive library, Drug-like library and Lead-like library) or a control plate to the assay plates with a Pin Tool (V&P Scientific, San Diego, CA). The compounds were arrayed in columns 3–12 and columns 15–24 of compound plates. The controls were arrayed in columns 1, 2, 13, and 14 of a compound plate. In all, 5 µl/well Tb-anti-GST (20 nM) and GST-MAGE-A11 (20 nM) or 5 µl/well Tb-anti-GST (20 nM) alone was then dispensed to selected wells with a Multidrop Combi Reagent Dispenser. The final assay volume was 20 µl/well. […] The final tested compound concentration was 15 µM. The final FAM-PCF11_4 concentration was 200 nM and the final Tb-anti-GST concentration was 5 nM. The final GST-MAGE-A11 concentration was 5 nM except for those selected positive control wells in which GST-MAGE-A11 was not presented. The plates were then shaken with a big bear shaker (Big Bear Automation, Santa Clara, California) and spun down with the Velocity11 VSpin microplate centrifuge for 20 s. The plates were then incubated at room temperature in a Liconic incubator (Liconic US, Woburn, MA) for 90 min. The TR-FRET signals for individual wells were measured with a PHERAstar FS plate reader. The %Inhibition of each tested inhibitor was calculated by using Eq. 1. Those inhibitors with %Inhibition >30% in the primary screening were selected for further dose-response test, along with additional newly synthesized compounds. […]

percent inhibition (TR-FRET) | SMILES
7.676 | COc1cccc(CN(CCCCNc2ccnc3cc(Cl)ccc23)Cc2ccccc2)c1O [SJ000312694]
-82.2209 | COc1ccc2ncc(S(=O)(=O)c3ccc(C)cc3)c(N3CCN(Cc4ccccc4)CC3)c2c1 [SJ000117085]
-366.222 | COc1ccc2nc3cc(Cl)ccc3c(NCCCNCc3cccc(F)c3)c2c1 [SJ000521004]
-6.567 | Cc1ccc(S(=O)(=O)c2cnc3ccccc3c2N2CCN(c3ccccc3)CC2)cc1 [SJ000117047]
2.112 | O=S(=O)(c1ccc(Cl)cc1)c1cnc2ccc(F)cc2c1N1CCN(c2ccccc2)CC1 [SJ000117055]
-30.2832 | O=S(=O)(c1ccccc1)c1cnc2ccc(Cl)cc2c1N1CCN(Cc2ccccc2)CC1 [SJ000247242]
-19.5512 | COc1ccccc1N1CCN(c2c(S(=O)(=O)c3ccccc3)cnc3ccc(C)cc23)CC1 [SJ000315081]
-0.2733 | CCN1CCN(c2c(C(=O)c3ccccc3)cnc3ccc(OC)cc23)CC1 [SJ000247365]
-11.08 | O=S(=O)(c1ccccc1)c1cnc2ccc(F)cc2c1N1CCN(c2ccc(F)cc2)CC1 [SJ000083980]
28.3389 | Fc1cccc(CN(CCCCNc2ccnc3cc(Cl)ccc23)Cc2ccccc2)c1 [SJ000361199]
-20.6111 | Cc1ccc(S(=O)(=O)c2cnc3ccccc3c2N2CCN(c3ccc(F)cc3)CC2)cc1 [SJ000117057]
26.4906 | Clc1ccc2c(NCCCCN(Cc3ccccc3)Cc3cccc4ccccc34)ccnc2c1 [SJ000361204]
-4.954 | Cc1cc(N2CCN(CC(O)CO)CC2)c2ccccc2n1 (stereo not shown) [SJ000227653]
-181.288 | CCOc1ccc2ncc(S(=O)(=O)c3ccccc3)c(N3CCN(c4ccc(F)cc4)CC3)c2c1 [SJ000083979]
-118.554 | CCCN(CCCNc1c2ccc(Cl)cc2nc2ccc(OC)cc12)Cc1ccccc1F [SJ000520944]
-9.945 | Clc1ccc2c(NCCCCN(Cc3ccccc3)Cc3ccncc3)ccnc2c1 [SJ000361190]

The next lines start with the compound.

SMILES | percent inhibition (TR-FRET)
COc1ccc2nc3cc(Cl)ccc3c(NCCCNCC3CCCCC3)c2c1 [SJ000361090] | -411.15
Clc1ccc2c(NCCCCN(Cc3ccccc3)Cc3ccco3)ccnc2c1 [SJ000312681] | 12.0487
CCOC(=O)c1cnc2c(C(F)(F)F)cccc2c1NCCN1CCOCC1 [SJ000281260] | 0.8341
COC(=O)CCCCCN(CCCCNc1ccnc2cc(Cl)ccc12)Cc1ccccc1 [SJ000520432] | 23.5757
CCCN(CCCCNc1ccnc2cc(Cl)ccc12)Cc1ccccc1 [SJ000311205] | 7.684
CCCN(CCCNc1c2ccc(Cl)cc2nc2ccc(OC)cc12)Cc1ccc(OC)c(OC)c1 [SJ000520957] | -175.453
CCCN(CCCCNc1ccnc2cc(Cl)ccc12)Cc1c[nH]c2ccccc12 [SJ000311204] | -3.378
CCOC(=O)c1cnc2ccc(OCC)cc2c1NCCN(C)C [SJ000027288] | 10.6575
CCN(CCO)CCCC(C)Nc1ccnc2cc(Cl)ccc12 (stereo not shown) [SJ000286026] | 3.702
CCCN(CCCCNc1ccnc2cc(Cl)ccc12)Cc1sccc1C [SJ000311199] | 6.494

same assay, conditions: single point TR-FRET screening of quinoline compounds against MAGE-A11:PCF11; 15 µM

percent inhibition (TR-FRET) | SMILES
-40.7667 | CCCN(CCCNc1c2ccc(Cl)cc2nc2ccc(OC)cc12)Cc1cccc2ccccc12 [SJ000520952]
23.1782 | COc1ccc(C(F)(F)F)cc1CN(CCCNc1ccnc2cc(Cl)ccc12)Cc1ccccc1 [SJ000520450]
66.4274 | Clc1ccc2c(NCCCN(Cc3ccccc3)Cc3ccc4[nH]ccc4c3)ccnc2c1 [SJ000520430]
20.217 | Cc1ccc(C)c(CN(CCCNc2ccnc3cc(Cl)ccc23)Cc2ccccc2)c1 [SJ000361187]
0.9627 | Fc1ccccc1CN(CCCNc1ccnc2cc(Cl)ccc12)Cc1ccccc1 [SJ000361175]
20.4621 | Clc1ccc2c(NCCCN(Cc3ccccc3)Cc3ccc[nH]3)ccnc2c1 [SJ000522717]
6.02 | Cc1cccc(CN(CCCNc2ccnc3cc(Cl)ccc23)Cc2ccccc2)c1 [SJ000361183]
-3.851 | Clc1ccc2c(NCCCN(Cc3ccccc3)Cc3ccccn3)ccnc2c1 [SJ000312678]

The next lines start with the compound.

SMILES | percent inhibition (TR-FRET)
CCCN(CCCNc1ccnc2cc(Cl)ccc12)Cc1cc(F)cc(F)c1O [SJ000357597] | 15.9573
COc1ccc2nc3cc(Cl)ccc3c(NCCCNCc3cccc(OC(F)(F)F)c3)c2c1 [SJ000520988] | -73.5426
CCCNCCCNc1ccnc2cc(C(F)(F)F)ccc12 [SJ000361123] | 12.8181
CCCN(CCCNc1ccnc2cc(Cl)ccc12)Cc1scnc1C [SJ000523005] | 11.85
FC(F)(F)c1ccc2c(NCCCNCc3cc(Br)cs3)ccnc2c1 [SJ000521056] | 32.7178
CCCN(CCCNc1c2ccc(Cl)cc2nc2ccc(OC)cc12)Cc1ccc(C)o1 [SJ000520932] | 0.9854
O=C(C[C@H]1CC[C@]2(CC1)OO[C@]1(O2)C2CC3CC(C2)CC1C3)NCCCNc1ccnc2cc(Cl)ccc12 [SJ000578380] | 28.4789
CCOC(=O)c1cnc2c(C)cccc2c1NCCCN1CCOCC1 [SJ000279636] | 3.353
CCCN(CCCNc1ccnc2cc(C(F)(F)F)ccc12)Cc1cc(C)ccc1C [SJ000523082] | 21.738
Cc1csc(CN(CCCNc2ccnc3cc(Cl)ccc23)Cc2ccccc2)n1 [SJ000520463] | -10.469
Cn1ccnc1CNCCCNc1ccnc2cc(C(F)(F)F)ccc12 [SJ000521068] | 10.1938
CCCN(CCCNc1ccnc2cc(Cl)ccc12)Cc1ccco1 [SJ000357458] | 3.483
Clc1ccc2c(NCCCN(CCCc3ccccc3)Cc3ccccc3)ccnc2c1 [SJ000361185] | 6.074
CCCN(CCCNc1ccnc2cc(C(F)(F)F)ccc12)Cc1ccsc1 [SJ000361254] | 28.8755
CSC(C)CCNCCCNc1ccnc2cc(C(F)(F)F)ccc12 (stereo not shown) [SJ000361125] | 24.4617
Clc1ccc2c(NCCCNCc3cc4ccccc4s3)ccnc2c1 [SJ000521032] | 30.1342
CCCN(CCCNc1c2ccc(Cl)cc2nc2ccc(OC)cc12)Cc1cccc(C#N)c1 [SJ000522739] | -94.5429
O=[N+]([O-])c1ccc(CNCCCNc2ccnc3cc(Cl)ccc23)s1 [SJ000520912] | 6.284
